# In patent US5244678A, “Pharmaceutical composition containing a local anesthetic and/or centrally acting analgesic encapsulated in liposomes” (Ire-Celltarg S.A., priority 1986, dated 1993):
# “Also recorded” adds a separate entry of the source.
# Experiments:
# motor fibers = details: bupivacaine used today in anesthesia; general knowledge; cited from earlier work
# [1] = Urinary excretion of radioactivity 2 hours after peridural injection; type: in vivo; details: rabbit, mean ± standard deviation, n=3
# Procedure: Radioactivity excreted in the urine (ID×10^2) 2 hours after the peridural injection of [^3 H]Ch-labeled SUV, of MLV which has integrated ^3 H-labeled bupivacaine, or of non-encapsulated bupivacaine. Mean±standard deviation; the number in brackets=the number of animals.
# [2] = Uptake by the nervous tissues after peridural injection; type: in vivo; details: rabbit, mean ± standard deviation, n=3
# Text: Mean±standarddeviation; number in brackets=number of animals.
# [3] = Blood kinetics in whole blood after peridural injection in rabbits; type: in vivo; details: rabbit
# Procedure: Biodistribution and pharmacokinetics of the liposomes which have incorporated bupivacaine, administered peridurally
# The formation of MLVs takes place by adding 3 ml of 0.3M Tris-HCl buffer, pH 8, followed by 5 centrifugations at 5000 g in the same buffer.
# The results are expressed as a percentage of the injected dose (ID) in the whole blood.
# tail of rats = assay: Analgesic effect: threshold of the pain induced by an electric shock to the tail of rats; type: in vivo; details: rat tail, point S2
# Procedure: The analgesic effect is measured by the increase in the threshold of the pain induced by an electric shock to the tail of rats.
# Lipid film: Egg Pc/Chol, 4:3-60 mg of lipids (equivalent to 43.26 mg of egg Pc and 16.74 mg of Chol)+5 mg of bupivacaine base in lyophilized, liposoluble form. Formation of the liposomes: Suspension of the lipid film in the form of multilamellar liposomes in a 0.3M Tris-HCl buffer, pH 8 (3 ml). The liposomal suspension is centrifuged, and the liposomal pellet is injected as it is (0.5 ml) under the skin, in the rat's tail at a point S2.
# The pain threshold is measured by electrical excitation at S2, and then at S1 (S1, situated 5 cm downstream from the injection point, serves for taking a reference with respect to the injection point, and also for measuring the possible diffusion of the product injected at S2).
# [4] = Biodistribution in the liver and heart 4 hours after peridural injection; type: in vivo; details: rabbit, mean ± standard deviation, n=3
# Procedure: 0.2 ml of the centrifugation pellet are administered peridurally to rabbits, under the same conditions as in Example 1.
# By way of control, 4.5 mg of bupivacaine for clinical use (Marcaine®-Astra-[…] strength hydrochloride solution) is administered under the same conditions with or without adrenaline, and with the addition of 0.01 mCi of [^3 H]bupivacaine, this combination being present in a total 0.2 ml of solution.
# Likewise, by way of control, SUVs without bupivacaine are administered in the course of this study, under the conditions stated in Example 1.
# The animals are sacrificed 120 and 240 minutes after the injection, and the organs and tissues are sampled under the same conditions as those of Example 1.
# Biodistribution of [^3 H]Ch SUV, of MLVS which have integrated [^3 H]bupivacaine, and of bupivacaine, in the liver and heart 4 hours after the peridural injection (ID×10^2).
structure (smiles),measurement,setting,value
"CCCCN1CCCCC1C(=O)Nc1c(C)cccc1C (stereo not drawn) [Bupivacaine, bupivacaine]",effect on sensory and motor fibers,motor fibers,"blocks the sensory fibers and not the motor fibers; also recorded: affects motor fibers to only a small extent, if at all"
same,Radioactivity excreted in the urine,[1],11.633 ± 0.518 ID×10^2
same,Uptake by brachial plexus,[2]; 2 hrs,0.295 ± 0.048 ID in 1 g×10^3
same,Uptake by cauda equina,[2]; 2 hrs,0.485 ± 0.057 ID in 1 g×10^3
same,Uptake by lumbar marrow,[2]; 2 hrs,0.411 ± 0.094 ID in 1 g×10^3
same,Uptake by sciatic nerve,[2]; 2 hrs,0.281 ± 0.026 ID in 1 g×10^3
same,Uptake by brachial plexus,[2]; 4 hrs,1.136 ± 0.008 ID in 1 g×10^3
same,Uptake by cauda equina,[2]; 4 hrs,0.132 ± 0.035 ID in 1 g×10^3
same,Uptake by lumbar marrow,[2]; 4 hrs,0.169 ± 0.046 ID in 1 g×10^3
same,Uptake by nerve roots,[2]; 4 hrs,0.153 ± 0.023 ID in 1 g×10^3
same,Uptake by sciatic nerve,[2]; 4 hrs,0.132 ± 0.028 ID in 1 g×10^3
same,highest blood level (blood peak),[3],1.4 % of the injected dose
same,time of rise of the pain threshold after injection,tail of rats,less than one hour
same,Biodistribution in the heart,[4],2.142 ± 0.301 ID×10^2
same,Biodistribution in the liver,[4],20.477 ± 1.458 ID×10^2
